{
  "source": "patent US20230143751A1",
  "about": "“Aromatic Compound And Use Thereof In Preparing Antineoplastic Drugs” (Shanghai Zheye Biotechnology Co. Ltd., priority 2020, published 2023)",
  "key": {"NCI-H358": {"test_system": "NCI-H358", "assay": "Cell proliferation inhibitory activity on NCI-H358, 3D model test (agarose colony formation)", "assay_type": "cell-based", "protocol": "100 μl of agarose gel with a high concentration was spread in a 96-well plate as the bottom agarose gel layer. Agarose with a low concentration and growth medium containing cells were mixed and then spread on the bottom agar layer, cooled and solidified, then incubated overnight at 37° C. Mother solutions were prepared from the test compounds by using DMSO, and then subjected to gradient elution with RPMI 1640 growth medium. The solutions of test compounds with different concentrations after gradient elution were added to the 96-well plate comprising an upper layer of agar gel-cells. Solvent control well was set up and the plate was incubated in a CO2 incubator. The drug-containing medium was changed during the incubation period and the cell growth situation was observed. After the incubation, the cells were stained with NBT and the number of cell colony formation was counted, and the IC50 values of the compounds inhibiting cell proliferation were derived."}, "[1]": {"test_system": "MIA PaCa-2-derived xenograft tumor", "assay": "Pharmacodynamics test of MIA PaCa-2-derived xenograft tumor model in nude mice (test 6)", "assay_type": "in vivo", "protocol": "(§1) Animal species and number: Balb/c Nude; 6 animals per group.\nTest samples: Compound 3-2, Compound 3-6, Compound 3-20, Compound 3-12M.\nTest groups: blank solvent control group; Compound 3-2 (10 mg/kg, QD×15 days), Compound 3-6 (10 mg/kg, QD×15 days), Compound 3-20 (10 mg/kg, QD×15 days), Compound 3-12M (10 mg/kg, QD×15 days).\n(§2) Animal model establishment: MIA paca-2 tumor cells in logarithmic growth phase were cultured in vitro and collected, and inoculated subcutaneously into the right back of nude mice at a quantity of 5×10^6 cells/each. When the tumor volume reached 150-300 mm^3, the tumor-bearing nude mice were randomly grouped. Subsequently, the animals in each group were administered, and the day of the first administration was defined as day 1 of the test.\nAdministration route and frequency: oral administration by gavage; once a day.\n(§3) General state observation: observation time and frequency: once a day; observation indexes or contents: including but not limited to administration location, appearance and signs, general behavioral activities, mental status, death and other abnormal performance of the animals. The animals were euthanized at the end of the test.\nTumor volume calculation: V=½×long diameter×short diameter^2 (mm^3). Tumor growth inhibition rate TGI (%) is used to evaluate the tumor inhibition efficacy of the compounds. TGI (%)=[1−(mean tumor volume in treatment group at the end of administration−mean tumor volume in treatment group at the beginning of administration)/(mean tumor volume in control group at the end of administration−mean tumor volume in control group at the beginning of administration)]×100%."}, "[2]": {"test_system": "NCI-H358-derived xenograft tumor", "assay": "Pharmacodynamics study of NCI-H358-derived xenograft tumor model, combination with Afatinib or Trametinib (test 10)", "assay_type": "in vivo, nude mice", "conditions": "i.g. QD×21 days, 3-2 10 mg/kg, Afatinib 10 mg/kg, Trametinib 0.1 mg/kg", "protocol": "Animal species and number: Balb/c Nude; 6 animals per group. Test samples: […] Test groups: blank solvent control group; […] NCI-H358 tumor cells in logarithmic growth phase were cultured in vitro and collected, and inoculated subcutaneously into the right back of nude mice at a quantity of 5×10^6 cells/each. When the tumor volume reached 150-300 mm^3, the tumor-bearing nude mice were randomly grouped. Subsequently, the animals in each group were administered, and the day of the first administration was defined as day 1 of the test. Administration frequency: once a day. General state observation: observation time and frequency: once a day; observation indexes or contents: including but not limited to administration location, appearance and signs, general behavioral activities, mental status, death and other abnormal performance of the animals. The animals were euthanized at the end of the test. Tumor volume calculation: V=½×long diameter×short diameter^2 (mm^3)."}, "MIA PaCa-2 cells": {"test_system": "MIA PaCa-2 cells", "assay": "Cell proliferation activity of MIA PaCa-2 by CellTiter-Glo reagent", "assay_type": "cell-based", "conditions": "for IC50: Homo sapiens, MIA PaCa-2", "protocol": "MIA PaCa-2 cells in exponential growth phase were digested with trypsin-EDTA, plated in a 96-well plate with 2000-3000 cells per well, and incubated overnight at 37° C. with 5% CO2. Mother solutions were prepared from the test compounds by using DMSO, subjected to gradient elution with DMEM growth medium, and then added into the 96-well plate and incubated in an incubator for 72 h at 37° C. with 5% CO2. After the incubation, CellTiter-Glo test reagent with an equal volume was added into each well and the obtained 96-well plate was incubated after shaking. The chemiluminescence values were determined by microplate reader, and the IC50 values of the test compounds inhibiting the proliferation of MIA PaCa-2 cells were fitted and calculated by GraphPad Prism software.\nThe test method of inhibitory activity was the same as that in Test 2 in “Biological Tests” part."}, "[3]": {"test_system": "MIA PaCa-2-derived xenograft tumor", "assay": "Pharmacodynamic effect study of MIA PaCa-2-derived xenograft tumor model (test 11)", "assay_type": "in vivo, nude mice", "conditions": "MIA PaCa-2 xenograft, 20 mg/kg i.g. QD×21 days", "protocol": "as §1\nTest samples: Compound 3-2, and Compound TM-1.\nTest groups: blank solvent control group;\nCompound 3-2 (20 mg/kg, i.g., QD×21 days);\nCompound TM-1 (20 mg/kg, i.g., QD×21 days).\nas §2, with “PaCa-2” for “paca-2”\nAdministration frequency: once a day.\nas §3\nTumor volume calculation: V=½×long diameter×short diameter^2 (mm^3)."}, "[4]": {"assay": "Preliminary safety test, 5-day escalating oral dosing in Balb/c mice", "assay_type": "in vivo", "protocol": "Test samples: Compound 3-2, Compound 3-6, Compound 3-12M, Compound 3-20, and Compound 4-8.\nAnimal species and number: Balb/c; 6 animals per group (half male and half female).\nAdministration mode: oral administration by gavage.\nAnimal grouping and administration dose: vehicle blank group, Compound 3-2 group (200 mg/kg, 400 mg/kg, 800 mg/kg), Compound 3-6 group (200 mg/kg, 400 mg/kg, 800 mg/kg), Compound 3-12M group (200 mg/kg, 400 mg/kg, 800 mg/kg), Compound 3-20 group (200 mg/kg, 400 mg/kg, 800 mg/kg), Compound 4-8 group (200 mg/kg, 400 mg/kg, 800 mg/kg).\nAdministration frequency: once a day for 5 days.\nGeneral clinical observations were performed 2 times a day (once in the morning and once in the afternoon) during the test period. Death, morbidity, respiration, secretions, feces, and diet, drinking situation and so on were observed, and the changes in body weight of the mice during the administration period were recorded. The animals in each group were euthanized after the administration, and all animals were dissected and subjected to gross observation."}},
  "note": "Read-outs that look alike come from different tables or passages of the source.",
  "data": [
    {"smiles": "C=CC(=O)N1CCN(c2nc(=O)n(-c3c(C)ccnc3C(C)C)c3nc(-c4ccccc4C=C)c(Cl)cc23)[C@@H](C)C1", "note": "[Compound 3-2]", "values": [
      {"measurement": "anti-cell proliferation activity against KRAS G12C mutant type cells NCI-H358 (in words)", "setting": "NCI-H358; 3D model test", "result": "significant anti-cell proliferation activity"},
      {"measurement": "IC50", "setting": "NCI-H358; Homo sapiens, NCI-H358, 3D agarose colony formation, NBT staining", "result": "< 0.05", "unit": "µM"},
      {"measurement": "inhibition effect on the growth of subcutaneously transplanted tumors derived from pancreatic cancer MIA paca-2 cells in nude mice (in words)", "setting": "[1]; 10 mg/kg QD×15 days", "result": "significant inhibition effect"},
      {"measurement": "Tumor inhibition rate (%)", "setting": "[1]; MIA PaCa-2 xenograft, nude mice, 10 mg/kg oral gavage QD×15 days", "result": "+++ (“+++” represents a tumor inhibition rate of >80%)"},
      {"measurement": "Tumor inhibition rate (%)", "setting": "[2]", "result": "++ (“++” represents a tumor inhibition rate of 130%˜200%)"},
      {"measurement": "anti-cell proliferation activity against KRAS G12C mutant type cells MIA PaCa-2 (in words)", "setting": "MIA PaCa-2 cells; 72 h, CellTiter-Glo", "result": "significant anti-cell proliferation activity"},
      {"measurement": "IC50", "setting": "MIA PaCa-2 cells; 72 h, CellTiter-Glo, read-out: IC50 value of cell proliferation inhibitory activity of the compound on MIA PaCa-2", "result": "< 0.05", "unit": "µM"},
      {"measurement": "IC50", "setting": "MIA PaCa-2 cells; test 12, method of test 2, read-out: IC50 of proliferation inhibitory activity of the compound on MIA Paca-2 cell line", "result": "≤ 0.015", "unit": "µM"},
      {"measurement": "proliferation inhibitory activity on MIA Paca-2 cell line compared with Compound TM-2 (in words)", "setting": "MIA PaCa-2 cells; test 12", "result": "remarkable better"},
      {"measurement": "Tumor inhibition rate (%)", "setting": "[3]", "result": "+++ (“+++” represents a tumor inhibition rate of >140%)"},
      {"measurement": "MTD at 5 days", "setting": "[4]; both sexes, mouse, in vivo, oral gavage, 5 days, initially suggested, read-out: maximum tolerated dose", "result": "> 800", "unit": "mg/kg"},
      {"measurement": "water and food intake, activity and body weight during the administration period (in words)", "setting": "[4]; oral gavage once a day for 5 days, 200 to 800 mg/kg", "result": "no significant abnormality was showed"}
    ]}
  ]
}
